Values of other authors as cited in patent publication US20050048543A1 (priority 2003, published 2005).

What was measured:
[1] = tested on: patients with mild to moderate AD; conditions: galantamine therapy in patients
[2] = tested on: AD patients

For `COc1ccc2c3c1O[C@H]1C[C@@H](O)C=C[C@@]31CCN(C)C2` [galantamine], which “most common side effects” value [1] is on record?
Its value is “nausea, vomiting, diarrhea, dizziness and anorexia”.

Which “response to treatment in presence of the ApoE4 polymorphism” value [2] does the source give for `Nc1c2c(nc3ccccc13)CCCC2` [tacrine] here?
Its value is “reduced response to treatment”.
